The subject of test [1] is G. mellonella larvae infected with APEC O78. Nature of the test: Wax moth (G. mellonella) larva infection model. In kind it is in vivo, Galleria mellonella. The note with it: for increase in larval survival: 12.5 µg/larva (50 mg/kg), APEC O78 4.25 × 10^4 CFU, 72 h, vs DMSO treated controls; for clearance of APEC in surviving larvae / reduction of bacterial load in surviving larvae: live larvae at 72 h; for reduction of bacterial load in surviving larvae: in comparison to dead larvae. As to the method: G. mellonella caterpillars (larvae) in the final instar stage (fifth instar) were obtained from Vanderhorst, Inc. (St. Mary’s, Ohio, USA), stored in wood shavings in a petri dish in the dark and used within 7 days of receiving. Larvae with 15–25 mm length, 250–350 mg weight, having a creamy color with minimal speckling and no grey markings were used in this study. The infection was performed as described previously. For the inoculation, AI-2 inhibitors were diluted in a buffer mix (30% DMSO plus 10 mM MgSO4) as described previously and each larva (n = 10) was inoculated with 8.5 µL (50 mg/kg; 12.5 µg/larva) of the AI-2 inhibitors into the hemocoel via the last left proleg using PB600-1 repeating dispenser (Hamilton) attached to insulin syringe (31 gauge, 8 mm needle length; ReliOn). Larvae were placed inside sterile petri dishes and incubated for 2 h in the dark at 37 °C. Then, larvae were infected with 8.5 µL of (4.25 × 10^4 CFU) of Rif^R APEC O78 in 10 mM MgSO4 on the right hind proleg. Rif^R APEC O78 was generated as described above by plating APEC on LB agar plate containing 50 µg/ mL rifampicin for specific monitoring of APEC population inside the larvae. […] Infection dose of Rif^R APEC O78 to larvae was identified based on preliminary study (Figure S1). Larvae were incubated at 37°C in the dark and the survival was monitored daily for 72 h. Infected larvae treated with buffer mix and 75 mg/kg of chloramphenicol were used as controls.
For the quantification of APEC inside the larvae, dead and live larvae were surface sterilized with 70% ethanol, homogenized in PBS. The suspension was tenfold serially diluted and plated on MacConkey agar plates supplemented with 50 µg/mL of rifampicin. The plates were then incubated overnight at 37 °C and APEC load was enumerated. Two independent experiments were conducted using larvae (n = 10) obtained in different batches.

The test system of test [2] is APEC O78 biofilm formation. Nature of the test: Biofilm assay (crystal violet). In kind it is cell-based, avian pathogenic E. coli (APEC) O78. To be noted: 48 h; for inhibition at 100 µM: Escherichia coli, crystal violet OD550 vs DMSO control, read-out: reduction of APEC O78 biofilm formation. On the procedure: Effect of the selected AI-2 inhibitors on biofilm formation was assessed using the crystal violet (CV) assay. Briefly, APEC O78 was grown in LB broth in the presence of 100 µM of each compound in a 96-well plate at 37 °C for 10 h. The culture was then diluted 1:100 in fresh LB broth. The biofilm assay was performed in a 96-well plate containing 150 µL of the diluted culture and 100 µM of each compound. The plate was then incubated aerobically without shaking at 37 °C for 48 h, washed twice with PBS to remove the non-adherent cells and stained with 200 µL of 0.1% CV in water at room temperature for 10 min. The plate was washed with PBS and biofilm was quantified by measuring the absorbance at 550 nm after solubilizing the CV in 200 μL of 30% acetic acid in water for 15 min.

The subject of test [3] is AI-2 activity of O8. Nature of the test: AI-2 bioluminescence indicator assay, APEC O8. The class given is cell-based, avian pathogenic E. coli (APEC) O8. The note with it: Escherichia coli, read-out: % Inhibtion of AI-2 activity, serotype O8, bioluminescence vs DMSO treated control. On the procedure: (§1) Overnight culture of APEC O78 prepared in LB broth was adjusted to an optical density (OD600) of 0.05 (7 × 10^7 CFU/mL) in fresh LB broth. One hundred micro-liters of the culture was transferred to a 96-well plate and 1µL (100 μM final concentration) of the compound was added to each well using a pin tool. Chloramphenicol (40 μg/mL) or kanamycin (30 μg/mL) and 1μL of 100% DMSO were included as controls in each plate. Plates were incubated at 37 °C for 10 h with shaking in a Sunrise^TM Tecan plate reader (Tecan Group Ltd. San Jose, CA, USA) and the growth was kinetically monitored every 30 min by measuring the OD at 600 nm.
(§2) The AI-2 bioluminescence assay was performed as described previously. Briefly, APEC O78 cultures grown in the presence of SMs (see above) were centrifuged at 5000 × g for 10 min, and cell-free culture supernatants were prepared by using a 0.22 µm filter 96 well plate (Millipore). The bioluminescence reporter V. harveyi BB170 (AI-1^+ and AI-2^-) was grown overnight in AB medium at 30 °C aerobically with shaking. The overnight culture was diluted to 1:5000 in fresh AB medium and incubated at 30 °C for 3 h. Following incubation, 180 μL of the V. harveyi BB170 culture was distributed into each well of a 96-well plate and mixed with 20 µL of the cell free culture supernatant, the plate was then incubated at 30 °C for 2.5 h in the dark and the bioluminescence was measured using in vivo imaging system (IVIS Lumina Series III, PerkinElmer, USA). […] Cell-free culture supernatants collected from overnight cultures of V. harveyi BB120 (AI-1^+andAI-2^+) and E. coli DH5α (a strain lacks AI-2) were used as controls. Bioluminescence of SMs treated culture supernatants were compared to DMSO treated control. The Z-score was calculated to evaluate the quality of the bioluminescence screening. Four independent experiments were conducted for the 69 compounds that inhibited ≥ 75% of the AI-2 mediated bioluminescence and the average inhibition percentage was calculated.
(§3) The selected compounds were also tested for inhibition of AI-2 production in other APEC serotypes such as O1, O2, O8, O15, O18, O35, O109, and O115 that are commonly implicated in colibacillosis using the same procedure described above.

Test [4] has as its system AI-2 activity of APEC O1. Nature of the test: AI-2 bioluminescence indicator assay, APEC O1. In kind it is cell-based, avian pathogenic E. coli (APEC) O1. The note with it: Escherichia coli, read-out: % Inhibtion of AI-2 activity, serotype O1, bioluminescence vs DMSO treated control. On the procedure:
as §1, §2, §3

The test system of test [5] is AI-2 activity of O115. Description: AI-2 bioluminescence indicator assay, APEC O115. The class given is cell-based, avian pathogenic E. coli (APEC) O115. The note with it: Escherichia coli, read-out: % Inhibtion of AI-2 activity, serotype O115, bioluminescence vs DMSO treated control. As to the method:
as §1, §2, §3

Where only a bound is given, the exact number is not on record here.

As for `O=[N+]([O-])c1cccc(S(=O)(=O)Nc2ccc(Br)cc2)c1` [C6, N-(4-bromophenyl)-3-nit robenzenesulfonamide], the “larval death at 48 h post treatment (in words)” value in test [1] is “no larval death”. Besides, the inhibition at 100 µM in test [2] was 63 to 66%; in test [3], ≥ 75%; in test [4], ≥ 75%.
On to `Fc1ccc(CN2CCCN(Cc3nc(-c4ccc(C(F)(F)F)cc4)no3)CC2)cc1` [C9, 1-(4-fluorobenzyl)-4-({3-[4-(trifluoromethyl)phenyl]-1,2,4-oxadiazol-5-yl}methyl)-1,4-diazepane], for which the inhibition at 100 µM in test [5] was 44%; in test [2], 52 to 58%; in test [3] it was 20%; in test [4], 19%.
For `CS/C(N)=N/N=C/c1cc(C)ccc1O` [C4, methyl N'-(2-hydroxy-5-methylbenzylidene)h ydrazonothiocarbamate] the same measures were 58%, 63 to 66%, 0% and 63%.
For `OCCC1CN(C2CCN(c3ccccc3)CC2)CCN1CCCc1ccccc1` (stereo not drawn) [C10, 2-[4-(1-phenyl-4-piperidinyl)-1-(3-phenylpropyl)-2-piperazinyl]ethanol] the same measures were ≥ 75%, 52 to 58%, 0% and 64%.
Taken in the same sequence, the figures for `NC(=O)c1ccccc1Nc1cccc(C(F)(F)F)c1` [C3, 2-{[3-(trifluoromethyl)phenyl]amino}benzamide] were 35%, 63 to 66%, 39% and 65%.
On to `O=C(CCN1CCN(c2ccccc2F)CC1)Nc1ccc(Br)cc1` [C7, N-(4-bromophenyl)-3-[4-(2-fluorophenyl)-1-piperazinyl]propanamide], for which the inhibition at 100 µM in test [5] was 45%; in test [2], 63 to 66%; in test [3] it was 2%; in test [4], 47%. The “larval death at 72 h post treatment (in words)” value in test [1] was “no larval death”.
Consider `COCCN1CCC(CN(Cc2ccncc2)Cc2ccccc2Cl)CC1` [C1, (2-chlorobenzyl){[1-(2-methoxyethyl)-4-piperidinyl]methyl}(4-pyridinylmethyl)amine], for which the inhibition at 100 µM in test [5] was 64%; in test [3], 20%; in test [4], ≥ 75%. In test [1], the “increase in larval survival” value was 23%. Further, the “larval death at 72 h post treatment (in words)” value in test [1] is recorded as “no larval death”. Moreover, in test [2] (100 µM, vs DMSO treated control), the “effect on APEC O78 biofilm formation (in words)” value is “no effect”.
Turning to `CCc1ccccc1Nc1nc(-c2c(C)nc3ccccn23)cs1` [C8, N-(2-ethylphenyl)-4-(2-methylimidazo[1,2-a]pyridin-3-yl)-1,3-thiazol-2-amine], the inhibition at 100 µM was 44% in test [5], 52 to 58% in test [2], 18% in test [3] and 41% in test [4]. In addition, the “larval death at 48 h post treatment (in words)” value in test [1] is given as “no larval death”. The “clearance of APEC in surviving larvae” value in test [1] is 100%. Moreover, the “reduction of bacterial load in surviving larvae” value in test [1] is recorded as “up to 5 logs”.
As to `Cc1ccc(CN2CCN(CCCc3ccccc3)CC2)cc1` [C5, 1-(4-methylbenzyl)-4-(3-phenylpropyl)piperazine], the inhibition at 100 µM in test [5] is 63%; in test [2], 63 to 66%; in test [3], 18%; in test [4], 46%. Also, in test [1], the “larval death at 48 h post treatment (in words)” value was “no larval death”.
For the compound `Cc1ccccc1N1CCN(C2CCCN(C(=O)c3ccc(F)c(Cl)c3)C2)CC1` (stereo not drawn) [C2, 1-[1-(3-chloro-4-fluorobenzoyl)-3-piperidinyl]-4-(2-methylphenyl)piperazine], the inhibition at 100 µM is 52% in test [5], 52 to 58% in test [2], 20% in test [3] and 64% in test [4]. Also, the “increase in larval survival” value in test [1] is recorded as 30%. The “larval death at 48 h post treatment (in words)” value in test [1] is “no larval death”. For the same compound, the “clearance of APEC in surviving larvae” value in test [1] stood at 100%. The “reduction of bacterial load in surviving larvae” value in test [1] is listed as “up to 5 logs”.

These data come from PMC7000209, “Novel small molecule modulators of quorum sensing in avian pathogenic Escherichia coli (APEC)” (Virulence, 2018).
